According to PubChem BioAssay AID1259407 (Chemical Carcinogenesis Research Information System (CCRIS), 2018):
The source made the active and inactive calls. No rule for the calls is given here.

System: CCRIS mutagenicity, Ames/micronucleus/aberration tests
Test: CCRIS mutagenicity studies

In the case of `CC(=O)Nc1ccc(O)cc1`, the mutagenic call (End Point: IN VITRO MICRONUCLEUS, Test System: CHL/IU CELLS, Metabolic Activation: NONE) is reported as “active; positive”, the mutagenic call (End Point: IN VITRO MICRONUCLEUS, Test System: RAT KIDNEY FIBROBLAST NRK-49F, Metabolic Activation: NONE) is reported as “active; positive” and the mutagenic call (Test System: AMES SALMONELLA TYPHIMURIUM, Strain/Indicator: TA97, Metabolic Activation: NONE, Method: STANDARD PLATE) is reported as “inactive; negative”. For the same compound, the mutagenic call (Test System: AMES SALMONELLA TYPHIMURIUM, Strain/Indicator: TA97, Metabolic Activation: RAT, LIVER, S-9, AROCLOR 1254, Method: STANDARD PLATE) was “inactive; negative”, the mutagenic call (Test System: AMES SALMONELLA TYPHIMURIUM, Strain/Indicator: TA98, Metabolic Activation: GUINEA PIG, LIVER, S-9, PCB, Method: PREINCUBATION) was “inactive; negative” and the mutagenic call (Test System: AMES SALMONELLA TYPHIMURIUM, Strain/Indicator: TA98, Metabolic Activation: HAMSTER, LIVER, S-9, AROCLOR 1254 (10%), Method: PREINCUBATION) was “inactive; negative”. For the same compound, the mutagenic call (Test System: AMES SALMONELLA TYPHIMURIUM, Strain/Indicator: TA98, Metabolic Activation: HAMSTER, LIVER, S-9, AROCLOR 1254, Method: STANDARD PLATE) was “inactive; negative”, the mutagenic call (Test System: AMES SALMONELLA TYPHIMURIUM, Strain/Indicator: TA98, Metabolic Activation: HAMSTER, LIVER, S-9, PCB, Method: PREINCUBATION) was “inactive; negative” and the mutagenic call (Test System: AMES SALMONELLA TYPHIMURIUM, Strain/Indicator: TA98, Metabolic Activation: MOUSE, LIVER, S-9, AROCLOR 1254, Method: STANDARD PLATE) was “inactive; negative”. For the same compound, the mutagenic call (Test System: AMES SALMONELLA TYPHIMURIUM, Strain/Indicator: TA98, Metabolic Activation: MOUSE, LIVER, S-9, PCB, Method: PREINCUBATION) was “inactive; negative”, the mutagenic call (Test System: AMES SALMONELLA TYPHIMURIUM, Strain/Indicator: TA98, Metabolic Activation: NONE, Method: PREINCUBATION) was “inactive; negative” and the mutagenic call (Test System: AMES SALMONELLA TYPHIMURIUM, Strain/Indicator: TA98, Metabolic Activation: NONE, Method: STANDARD PLATE) was “inactive; negative”. For the same compound, the mutagenic call (Test System: AMES SALMONELLA TYPHIMURIUM, Strain/Indicator: TA98, Metabolic Activation: RAT, LIVER, S-9, AROCLOR 1254 (10%), Method: PREINCUBATION) was “inactive; negative”, the mutagenic call (Test System: AMES SALMONELLA TYPHIMURIUM, Strain/Indicator: TA98, Metabolic Activation: RAT, LIVER, S-9, AROCLOR 1254, Method: STANDARD PLATE) was “inactive; negative” and the mutagenic call (Test System: AMES SALMONELLA TYPHIMURIUM, Strain/Indicator: TA98, Metabolic Activation: RAT, LIVER, S-9, ETHANOL, Method: STANDARD PLATE) was “inactive; negative”. The mutagenic call (Test System: AMES SALMONELLA TYPHIMURIUM, Strain/Indicator: TA98, Metabolic Activation: RAT, LIVER, S-9, PCB, Method: PREINCUBATION) was “inactive; negative”, the mutagenic call (Test System: AMES SALMONELLA TYPHIMURIUM, Strain/Indicator: TA98, Metabolic Activation: RAT, LIVER, S-9, PYRAZOLE, Method: STANDARD PLATE) was “inactive; negative” and the mutagenic call (Test System: AMES SALMONELLA TYPHIMURIUM, Strain/Indicator: TA100, Metabolic Activation: GUINEA PIG, LIVER, S-9, PCB, Method: PREINCUBATION) was “inactive; negative”. For the same compound, the mutagenic call (Test System: AMES SALMONELLA TYPHIMURIUM, Strain/Indicator: TA100, Metabolic Activation: HAMSTER, LIVER, S-9, AROCLOR 1254 (10%), Method: PREINCUBATION) was “inactive; negative”, the mutagenic call (Test System: AMES SALMONELLA TYPHIMURIUM, Strain/Indicator: TA100, Metabolic Activation: HAMSTER, LIVER, S-9, AROCLOR 1254, Method: STANDARD PLATE) was “inactive; negative” and the mutagenic call (Test System: AMES SALMONELLA TYPHIMURIUM, Strain/Indicator: TA100, Metabolic Activation: HAMSTER, LIVER, S-9, PCB, Method: PREINCUBATION) was “active; positive”. The mutagenic call (Test System: AMES SALMONELLA TYPHIMURIUM, Strain/Indicator: TA100, Metabolic Activation: MOUSE, LIVER, S-9, AROCLOR 1254, Method: STANDARD PLATE) was “inactive; negative”, the mutagenic call (Test System: AMES SALMONELLA TYPHIMURIUM, Strain/Indicator: TA100, Metabolic Activation: MOUSE, LIVER, S-9, PCB, Method: PREINCUBATION) was “inactive; negative” and the mutagenic call (Test System: AMES SALMONELLA TYPHIMURIUM, Strain/Indicator: TA100, Metabolic Activation: NONE, Method: PREINCUBATION) was “inactive; negative”. The mutagenic call (Test System: AMES SALMONELLA TYPHIMURIUM, Strain/Indicator: TA100, Metabolic Activation: NONE, Method: STANDARD PLATE) was “inactive; negative”, the mutagenic call (Test System: AMES SALMONELLA TYPHIMURIUM, Strain/Indicator: TA100, Metabolic Activation: RAT, LIVER, S-9, AROCLOR 1254 (10%), Method: PREINCUBATION) was “inactive; negative” and the mutagenic call (Test System: AMES SALMONELLA TYPHIMURIUM, Strain/Indicator: TA100, Metabolic Activation: RAT, LIVER, S-9, AROCLOR 1254, Method: STANDARD PLATE) was “inactive; negative”. The mutagenic call (Test System: AMES SALMONELLA TYPHIMURIUM, Strain/Indicator: TA100, Metabolic Activation: RAT, LIVER, S-9, ETHANOL, Method: STANDARD PLATE) was “inactive; negative”, the mutagenic call (Test System: AMES SALMONELLA TYPHIMURIUM, Strain/Indicator: TA100, Metabolic Activation: RAT, LIVER, S-9, PCB, Method: PREINCUBATION) was “inactive; negative” and the mutagenic call (Test System: AMES SALMONELLA TYPHIMURIUM, Strain/Indicator: TA100, Metabolic Activation: RAT, LIVER, S-9, PYRAZOLE, Method: STANDARD PLATE) was “inactive; negative”. For the same compound, the mutagenic call (Test System: AMES SALMONELLA TYPHIMURIUM, Strain/Indicator: TA102, Metabolic Activation: RAT, LIVER, S-9, ETHANOL, Method: STANDARD PLATE) was “inactive; negative”, the mutagenic call (Test System: AMES SALMONELLA TYPHIMURIUM, Strain/Indicator: TA102, Metabolic Activation: RAT, LIVER, S-9, PYRAZOLE, Method: STANDARD PLATE) was “inactive; negative” and the mutagenic call (Test System: AMES SALMONELLA TYPHIMURIUM, Strain/Indicator: TA1535, Metabolic Activation: HAMSTER, LIVER, S-9, AROCLOR 1254 (10%), Method: PREINCUBATION) was “inactive; negative”. For the same compound, the mutagenic call (Test System: AMES SALMONELLA TYPHIMURIUM, Strain/Indicator: TA1535, Metabolic Activation: HAMSTER, LIVER, S-9, AROCLOR 1254, Method: STANDARD PLATE) was “inactive; negative”, the mutagenic call (Test System: AMES SALMONELLA TYPHIMURIUM, Strain/Indicator: TA1535, Metabolic Activation: MOUSE, LIVER, S-9, AROCLOR 1254, Method: STANDARD PLATE) was “inactive; negative” and the mutagenic call (Test System: AMES SALMONELLA TYPHIMURIUM, Strain/Indicator: TA1535, Metabolic Activation: NONE, Method: PREINCUBATION) was “inactive; negative”. For the same compound, the mutagenic call (Test System: AMES SALMONELLA TYPHIMURIUM, Strain/Indicator: TA1535, Metabolic Activation: NONE, Method: STANDARD PLATE) was “inactive; negative”, the mutagenic call (Test System: AMES SALMONELLA TYPHIMURIUM, Strain/Indicator: TA1535, Metabolic Activation: RAT, LIVER, S-9, AROCLOR 1254 (10%), Method: PREINCUBATION) was “inactive; negative” and the mutagenic call (Test System: AMES SALMONELLA TYPHIMURIUM, Strain/Indicator: TA1535, Metabolic Activation: RAT, LIVER, S-9, AROCLOR 1254, Method: STANDARD PLATE) was “inactive; negative”. For the same compound, the mutagenic call (Test System: AMES SALMONELLA TYPHIMURIUM, Strain/Indicator: TA1535, Metabolic Activation: RAT, LIVER, S-9, PYRAZOLE, Method: STANDARD PLATE) was “inactive; negative”, the mutagenic call (Test System: AMES SALMONELLA TYPHIMURIUM, Strain/Indicator: TA1537, Metabolic Activation: HAMSTER, LIVER, S-9, AROCLOR 1254 (10%), Method: PREINCUBATION) was “inactive; negative” and the mutagenic call (Test System: AMES SALMONELLA TYPHIMURIUM, Strain/Indicator: TA1537, Metabolic Activation: HAMSTER, LIVER, S-9, AROCLOR 1254, Method: STANDARD PLATE) was “inactive; negative”. The mutagenic call (Test System: AMES SALMONELLA TYPHIMURIUM, Strain/Indicator: TA1537, Metabolic Activation: MOUSE, LIVER, S-9, AROCLOR 1254, Method: STANDARD PLATE) was “inactive; negative”, the mutagenic call (Test System: AMES SALMONELLA TYPHIMURIUM, Strain/Indicator: TA1537, Metabolic Activation: NONE, Method: PREINCUBATION) was “inactive; negative” and the mutagenic call (Test System: AMES SALMONELLA TYPHIMURIUM, Strain/Indicator: TA1537, Metabolic Activation: NONE, Method: STANDARD PLATE) was “inactive; negative”. The mutagenic call (Test System: AMES SALMONELLA TYPHIMURIUM, Strain/Indicator: TA1537, Metabolic Activation: RAT, LIVER, S-9, AROCLOR 1254 (10%), Method: PREINCUBATION) was “inactive; negative”, the mutagenic call (Test System: AMES SALMONELLA TYPHIMURIUM, Strain/Indicator: TA1537, Metabolic Activation: RAT, LIVER, S-9, AROCLOR 1254, Method: STANDARD PLATE) was “inactive; negative” and the mutagenic call (Test System: AMES SALMONELLA TYPHIMURIUM, Strain/Indicator: TA1537, Metabolic Activation: RAT, LIVER, S-9, PYRAZOLE, Method: STANDARD PLATE) was “inactive; negative”. The mutagenic call (Test System: AMES SALMONELLA TYPHIMURIUM, Strain/Indicator: TA1538, Metabolic Activation: HAMSTER, LIVER, S-9, AROCLOR 1254, Method: STANDARD PLATE) was “inactive; negative”, the mutagenic call (Test System: AMES SALMONELLA TYPHIMURIUM, Strain/Indicator: TA1538, Metabolic Activation: MOUSE, LIVER, S-9, AROCLOR 1254, Method: STANDARD PLATE) was “inactive; negative” and the mutagenic call (Test System: AMES SALMONELLA TYPHIMURIUM, Strain/Indicator: TA1538, Metabolic Activation: NONE, Method: STANDARD PLATE) was “inactive; negative”. The mutagenic call (Test System: AMES SALMONELLA TYPHIMURIUM, Strain/Indicator: TA1538, Metabolic Activation: RAT, LIVER, S-9, AROCLOR 1254, Method: STANDARD PLATE) was “inactive; negative” and the mutagenic call (Test System: TEST SALMONELLA TYPHIMURIUM, Strain/Indicator: TA1537, Metabolic Activation: RAT, LIVER, S-9, AROCLOR 1254, Method: STANDARD PLATE) was “inactive; negative”.
